Reference: patent US7056275B2, “Radiotherapy” (Algeta A/S, priority 2000, dated 2006)
Like-named read-outs stand apart in the source and are kept apart here.

Assays:
[1] = for Tissue distribution, Blood / Tissue distribution, Brain / Tissue distribution, Femur / Tissue distribution, Heart / Tissue distribution, Kidney / Tissue distribution, L.I. / Tissue distribution, Liver / Tissue distribution, Lung / Tissue distribution, Muscle / Tissue distribution, Rib / Tissue distribution, S.I. / Tissue distribution, Skull / Tissue distribution, Spleen / Tissue distribution, Stomach: +/- SD; for Femur/Blood ratio / Femur/Kidneys ratio / Femur/Liver ratio / Femur/Spleen ratio: Balb C mice; for femur to blood and femur to tissue ratios compared to cationic radium-223 (in words): chelates at 4 hours vs radium-223 at 6 hours after injection, for some organs
Experimental: The biodistribution of thorium and actinium bound to polyphosphonate was studied in mice.
Balb/C mice with a bodyweight in the range of 11–16 g were used in the biodistribution experiments. The compounds were administered by intravenous injection of 100–200 μl of the preparation for each animal in paired label arrangement. The compounds ^228Ac-DOTMP, ^227Th-DOTMP, ^227Th-DTMP and ^227Th-acetate/MES were investigated. Approximately 5 kBq of ^[…] and 5 kBq of ^228Ac was injected. Animals were sacrificed by cervical dislocation. The tissue distribution was determined on 3 mice for each pair of compounds. The tissue distribution was determined after 4 hours for ^228Ac-DOTMP, ^227Th-DOTMP, ^227Th-DTMP and ^227Th-acetate.
In general, radioactivity in the tissue samples was measured by using a NaI (Tl) well-type detector and by liquid scintillation counting (Beckmann LS6500, Beckmann, Fullerton, Calif., USA). ^227Th was measured by using a HPGe detector (Canberra, Conn, USA) and also by liquid scintillation counting after dissolution of tissue samples and allowing decay of ^228Ac. ^228Ac was measured by the HPGe detector and the NaI(Tl) detector.
Samples of the radioactive preparations of the nuclides were used as references to account for physical decay and radiation crossover in the detection procedures.

[2] = cationic species, mice, published data; cited from earlier work
[3] = 4 hours after injection, i.v., Balb/C mice
[4] = bone seeking chelates, 4 hours after injection
[5] = cationic radium-223, 6 hours after injection

Row | SMILES | Tissue distribution, Blood [1, 3] | Tissue distribution, Brain [1, 3] | Tissue distribution, Femur [1, 3] | Tissue distribution, Heart [1, 3] | Tissue distribution, Kidney [1, 3] | Tissue distribution, L.I. [1, 3] | Tissue distribution, Liver [1, 3] | Tissue distribution, Lung [1, 3] | Tissue distribution, Muscle [1, 3] | Tissue distribution, Rib [1, 3] | Tissue distribution, S.I. [1, 3] | Tissue distribution, Skull [1, 3] | Tissue distribution, Spleen [1, 3] | Femur/Blood ratio [1, 4] | Femur/Kidneys ratio [1, 4] | Femur/Liver ratio [1, 4] | Femur/Spleen ratio [1, 4] | femur to blood and femur to tissue ratios compared to cationic radium-223 (in words) [1] | Tissue distribution, Stomach [1, 3] | further results
1 | O=P([O-])(O)CN1CCN(CP(=O)([O-])O)CCN(CP(=O)(O)O)CCN(CP(=O)([O-])O)CC1.[228Ac+3] [Ac-228 DOTMP] | <0.1 % I.D./g | <0.1 % I.D./g | 20.67 ± 2.23 % I.D./g | <0.1 % I.D./g | 2.7 ± 2.4 % I.D./g | 0.20 ± 0.11 % I.D./g | 1.26 ± 0.9 % I.D./g | 0.20 ± 0.10 % I.D./g | 0.30 ± 0.11 % I.D./g | 10.5 ± 3.5 % I.D./g | 0.14 ± 0.07 % I.D./g | 10.7 ± 2.7 % I.D./g | 0.51 ± 0.10 % I.D./g | >196 | 7.7 | 16.4 | 41.3 | better |  | 
2 | O=P([O-])(O)CN1CCN(CP(=O)([O-])O)CCN(CP(=O)([O-])O)CCN(CP(=O)([O-])O)CC1.[227Th+4] [Th-227 DOTMP] | <0.1 % I.D./g | <0.1 % I.D./g | 20.55 ± 2.21 % I.D./g | <0.1 % I.D./g | 3.43 ± 1.70 % I.D./g | 0.19 ± 0.10 % I.D./g | 0.39 ± 0.19 % I.D./g | 0.18 ± 0.09 % I.D./g | 0.29 ± 0.17 % I.D./g | 11.06 ± 3.81 % I.D./g | 0.14 ± 0.08 % I.D./g | 10.8 ± 2.94 % I.D./g | 0.51 ± 0.14 % I.D./g | >196 | 6.0 | 52.7 | 40.3 | better | 0.15 ± 0.05 % I.D./g | Tissue distribution, Urine ([1]; 4 hours after injection, i.v., Balb/C mice, n = 1): 21.1 % I.D./g
3 | O=P([O-])(O)CN(CCN(CP(=O)([O-])O)CP(=O)([O-])O)CCN(CP(=O)([O-])O)CP(=O)(O)O.[227Th+4] [Th-227 DTMP] | <0.1 % I.D./g | <0.1 % I.D./g | 19.58 ± 3.58 % I.D./g | <0.1 % I.D./g | 1.38 ± 0.54 % I.D./g | 0.15 ± 0.03 % I.D./g | 0.40 ± 0.43 % I.D./g | 0.12 ± 0.04 % I.D./g | 0.63 ± 0.33 % I.D./g | 8.83 ± 5.06 % I.D./g | 0.56 ± 0.63 % I.D./g | 12.3 ± 3.14 % I.D./g | 0.13 ± 0.04 % I.D./g | >196 | 14.2 | 49 | 151 | better | 0.70 ± 0.80 % I.D./g | 
4 | [223Ra] [^223Ra, reference compound] |  |  |  |  |  |  |  |  |  |  |  |  |  |  |  |  |  |  |  | Femur/Blood ratio [1, 5]: 129; Femur/Kidneys ratio [1, 5]: 6.4; Femur/Liver ratio [1, 5]: 29.1; Femur/Spleen ratio [1, 5]: 6.4
5 | CC(=O)[O-].CC(=O)[O-].CC(=O)[O-].CC(=O)[O-].[227Th+4] [^227Th-acetate, reference compound] | 1.2 ± 0.4 % I.D./g | <0.1 % I.D./g | 23.4 ± 6.9 % I.D./g | 2.6 ± 0.2 % I.D./g | 7.7 ± 0.7 % I.D./g | 1.7 ± 0.1 % I.D./g | 56.5 ± 9.4 % I.D./g | 2.6 ± 0.4 % I.D./g | 1.1 % I.D./g | 14.6 ± 4.4 % I.D./g | 2.3 ± 0.1 % I.D./g | 18.9 ± 7.6 % I.D./g | 14.2 ± 2.8 % I.D./g |  |  |  |  |  | 4.6 ± 1.0 % I.D./g | bone uptake (in words) ([1]; 4 hours after injection, mice): high and similar to the observed values with the bone-seeking polyphosphonate complexing agents; suitability for in vivo bone targeting given affinity for soft tissues, e.g. liver and spleen (in words) ([1]; 4 hours after injection, mice): unsuitable for in vivo bone targeting
6 | CC(=O)[O-].CC(=O)[O-].CC(=O)[O-].[Ac+3] [cationic actinium] |  |  |  |  |  |  |  |  |  |  |  |  |  |  |  |  |  |  |  | selective bone uptake relative to soft tissue uptake (in words) [2]: does not show sufficient selective bone uptake relative to soft tissue uptake
